Results published in patent US6355799B1, “Substituted benzene compounds, process for their preparation, and herbicidal and defoliant compositions containing them” (ISK Americas Incorporated, priority 1997, dated 2002).

Assays:
Format in all cases: in vivo
[1] = system: johnsongrass (Sorghum halepense, SORHA); test: Post-emerge test, greenhouse herbicide activity screening; settings: phytotoxicity rating 0-100 (0 no damage, 100 complete death), 14 days after application
Outline: (§1)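 Herbicidal damage is scored 0 (none) to 100 (complete plant death) two weeks after a simulated field spray. Rates span 15–1000 g ai/ha, delivered in acetone at 187 l/ha. For post-emergence treatments, plants have 2–3 leaves and the spray carries 0.25% v/v non-ionic surfactant.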

[2] = system: ivyleaf morningglory (Ipomoea hederacea, IPOHE); test: as above; settings: phytotoxicity rating 0-100 (0 no damage, 100 complete death), 14 days after application
Outline: as §1

[3] = system: velvetleaf (Abutilon theophrasti, ABUTH); test: as above; settings: phytotoxicity rating 0-100 (0 no damage, 100 complete death), 14 days after application
Outline: as §1

[4] = system: sicklepod (Cassia obtusifolia, CASOB); test: as above; settings: phytotoxicity rating 0-100 (0 no damage, 100 complete death), 14 days after application
Outline: as §1

[5] = system: green foxtail (Setaria viridis, SETVI); test: as above; settings: phytotoxicity rating 0-100 (0 no damage, 100 complete death), 14 days after application
Outline: as §1

[6] = system: redroot pigweed (Amaranthus retroflexus, AMARE); test: as above; settings: phytotoxicity rating 0-100 (0 no damage, 100 complete death), 14 days after application
Outline: as §1

[7] = system: barnyardgrass (Echinochloa crus-galli, ECHCG); test: as above; settings: phytotoxicity rating 0-100 (0 no damage, 100 complete death), 14 days after application
Outline: as §1

[8] = system: lambsquarters (Chenopodium album, CHEAL); test: as above; settings: phytotoxicity rating 0-100 (0 no damage, 100 complete death), 14 days after application
Outline: as §1

[9] = system: common ragweed (Ambrosia artemisizfolia L., AMBEL); test: as above; settings: phytotoxicity rating 0-100 (0 no damage, 100 complete death), 14 days after application
Outline: as §1

[10] = system: large crabgrass (Digitaria sanguinalis, DIGSA); test: as above; settings: phytotoxicity rating 0-100 (0 no damage, 100 complete death), 14 days after application
Outline: as §1

[11] = system: johnsongrass (Sorghum halepense, SORHA); test: Pre-emerge test, greenhouse herbicide activity screening; settings: pre-emerge, rated 14 days after application, 0 = no damage, 100 = complete death
Outline: (§2)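 Plants grown in 10 cm pots of sandy loam mix received acetone-dissolved compounds through a moving flat-fan nozzle. Doses ranged from 15 to 1000 g ai/ha. Pre-emerge pots were seeded one day earlier, post-emerge pots 8–21 days earlier. Fourteen days on, each pot was graded 0–100 for damage.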

[12] = system: ivyleaf morningglory (Ipomoea hederacea, IPOHE); test: as above; settings: pre-emerge, rated 14 days after application, 0 = no damage, 100 = complete death
Outline: as §2

[13] = system: velvetleaf (Abutilon theophrasti, ABUTH); test: as above; settings: pre-emerge, rated 14 days after application, 0 = no damage, 100 = complete death
Outline: as §2

[14] = system: sicklepod (Cassia obtusifolia, CASOB); test: as above; settings: pre-emerge, rated 14 days after application, 0 = no damage, 100 = complete death
Outline: as §2

[15] = system: green foxtail (Setaria viridis, SETVI); test: as above; settings: pre-emerge, rated 14 days after application, 0 = no damage, 100 = complete death
Outline: as §2

[16] = system: barnyardgrass (Echinochloa crus-galli, ECHCG); test: as above; settings: pre-emerge, rated 14 days after application, 0 = no damage, 100 = complete death
Outline: as §2

[17] = system: lambsquarters (Chenopodium album, CHEAL); test: as above; settings: pre-emerge, rated 14 days after application, 0 = no damage, 100 = complete death
Outline: as §2

[18] = system: common ragweed (Ambrosia artemisizfolia L., AMBEL); test: as above; settings: pre-emerge, rated 14 days after application, 0 = no damage, 100 = complete death
Outline: as §2

[19] = system: large crabgrass (Digitaria sanguinalis, DIGSA); test: as above; settings: pre-emerge, rated 14 days after application, 0 = no damage, 100 = complete death
Outline: as §2

[20] = system: field corn (Zea mays L., var. Dekalb 535, CORN); test: Post-emerge test, crop safety; settings: phytotoxicity rating 0-100 (0 no damage, 100 complete death), 14 days after application
Outline: (§3)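 Each test used a mechanized track sprayer delivering 187 l/ha of acetone solution at 15–1000 g ai/ha. Post-emerge foliage at 2–3 leaves was treated with added 0.25% v/v non-ionic surfactant and bottom-watered only. Injury was assessed on day 14, where 100 means total kill.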

[21] = system: upland rice (Oryza sp., var. Tebonnet, RICE); test: Post-emerge test, crop safety; settings: phytotoxicity rating 0-100 (0 no damage, 100 complete death), 14 days after application
Outline: as §3

[22] = system: field corn (Zea mays L., var. Dekalb 535, CORN); test: Pre-emerge test, crop safety; settings: pre-emerge, rated 14 days after application, 0 = no damage, 100 = complete death
Outline: (§4)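 Visual ratings on a 0-100 scale (0 no damage, 100 all plants dead) were taken at 14 days after treatment. Rates of 15-1000 g ai/ha in acetone, 187 l/ha, were sprayed onto soil one day after planting (pre-emerge) or onto 2-3 leaf plants with 0.25% v/v surfactant (post-emerge).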

[23] = system: upland rice (Oryza sp., var. Tebonnet, RICE); test: Pre-emerge test, crop safety; settings: pre-emerge, rated 14 days after application, 0 = no damage, 100 = complete death
Outline: as §4

[24] = system: redroot pigweed (Amaranthus retroflexus, AMARE); test: Pre-emerge test, greenhouse herbicide activity screening; settings: pre-emerge, rated 14 days after application, 0 = no damage, 100 = complete death
Outline: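 Compounds in acetone were track-sprayed at 15-1000 g ai/ha (187 l/ha) on sandy loam pots: pre-emerge one day after seeding, post-emerge at 2-3 leaf stage with 0.25% v/v non-ionic surfactant. Phytotoxicity was rated 14 days later on a 0 (no damage) to 100 (complete death) scale.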

Q: Which “Post-emerge Herbicidal Activity SORHA” value ([1]; 63 g ai/ha) does the source give for `COc1c(Cl)cc(F)c(-n2c(=O)c(NC(=O)C(F)(F)F)c(C(F)(F)F)n(C)c2=O)c1NC(=O)C(F)(F)F` [2-12] here?
A: Its value is 0.

Q: And the “Post-emerge Herbicidal Activity SORHA” value ([1]; 250 g ai/ha)?
A: The value was 0.

Q: And the “Post-emerge Herbicidal Activity IPOHE” value ([2]; 63 g ai/ha)?
A: Its value is 0.

Q: And the “Post-emerge Herbicidal Activity IPOHE” value ([2]; 250 g ai/ha)?
A: The value was 50.

Q: And the “Post-emerge Herbicidal Activity ABUTH” value ([3]; 63 g ai/ha)?
A: Its value is 20.

Q: And the “Post-emerge Herbicidal Activity ABUTH” value ([3]; 250 g ai/ha)?
A: The value was 65.

Q: And the “Post-emerge Herbicidal Activity CASOB” value ([4]; 63 g ai/ha)?
A: The value was 0.

Q: And the “Post-emerge Herbicidal Activity CASOB” value ([4]; 250 g ai/ha)?
A: Its value is 0.

Q: What about the “Post-emerge Herbicidal Activity SETVI” value ([5]; 63 g ai/ha) of the same compound?
A: The value was 0.

Q: And the “Post-emerge Herbicidal Activity SETVI” value ([5]; 250 g ai/ha)?
A: Its value is 0.

Q: And the “Post-emerge Herbicidal Activity AMARE” value ([6]; 63 g ai/ha)?
A: Its value is 0.

Q: What about the “Post-emerge Herbicidal Activity AMARE” value ([6]; 250 g ai/ha) of the same compound?
A: Its value is 10.

Q: What about the “Post-emerge Herbicidal Activity ECHCG” value ([7]; 63 g ai/ha) of the same compound?
A: Its value is 0.

Q: And the “Post-emerge Herbicidal Activity ECHCG” value ([7]; 250 g ai/ha)?
A: The value was 0.

Q: And the “Post-emerge Herbicidal Activity CHEAL” value ([8]; 63 g ai/ha)?
A: The value was 0.

Q: What about the “Post-emerge Herbicidal Activity CHEAL” value ([8]; 250 g ai/ha) of the same compound?
A: The value was 40.

Q: And the “Post-emerge Herbicidal Activity AMBEL” value ([9]; 63 g ai/ha)?
A: The value was 0.

Q: What about the “Post-emerge Herbicidal Activity AMBEL” value ([9]; 250 g ai/ha) of the same compound?
A: Its value is 10.

Q: What about the “Post-emerge Herbicidal Activity DIGSA” value ([10]; 63 g ai/ha) of the same compound?
A: Its value is 0.

Q: What about the “Post-emerge Herbicidal Activity DIGSA” value ([10]; 250 g ai/ha) of the same compound?
A: Its value is 0.

Q: What about the “Pre-emerge Herbicidal Activity SORHA (phytotoxicity rating, scale 0-100)” value ([11]; 63 g ai/ha) of the same compound?
A: Its value is 0.

Q: And the “Pre-emerge Herbicidal Activity SORHA (phytotoxicity rating, scale 0-100)” value ([11]; 250 g ai/ha)?
A: Its value is 0.

Q: What about the “Pre-emerge Herbicidal Activity IPOHE (phytotoxicity rating, scale 0-100)” value ([12]; 63 g ai/ha) of the same compound?
A: The value was 40.

Q: And the “Pre-emerge Herbicidal Activity IPOHE (phytotoxicity rating, scale 0-100)” value ([12]; 250 g ai/ha)?
A: The value was 70.

Q: And the “Pre-emerge Herbicidal Activity ABUTH (phytotoxicity rating, scale 0-100)” value ([13]; 63 g ai/ha)?
A: The value was 50.

Q: What about the “Pre-emerge Herbicidal Activity ABUTH (phytotoxicity rating, scale 0-100)” value ([13]; 250 g ai/ha) of the same compound?
A: Its value is 70.

Q: What about the “Pre-emerge Herbicidal Activity CASOB (phytotoxicity rating, scale 0-100)” value ([14]; 63 g ai/ha) of the same compound?
A: The value was 30.

Q: And the “Pre-emerge Herbicidal Activity CASOB (phytotoxicity rating, scale 0-100)” value ([14]; 250 g ai/ha)?
A: The value was 40.

Q: What about the “Pre-emerge Herbicidal Activity SETVI (phytotoxicity rating, scale 0-100)” value ([15]; 63 g ai/ha) of the same compound?
A: Its value is 0.

Q: And the “Pre-emerge Herbicidal Activity SETVI (phytotoxicity rating, scale 0-100)” value ([15]; 250 g ai/ha)?
A: Its value is 0.

Q: And the “Pre-emerge Herbicidal Activity ECHCG (phytotoxicity rating, scale 0-100)” value ([16]; 63 g ai/ha)?
A: The value was 0.

Q: What about the “Pre-emerge Herbicidal Activity ECHCG (phytotoxicity rating, scale 0-100)” value ([16]; 250 g ai/ha) of the same compound?
A: Its value is 0.

Q: What about the “Pre-emerge Herbicidal Activity CHEAL (phytotoxicity rating, scale 0-100)” value ([17]; 63 g ai/ha) of the same compound?
A: Its value is 0.

Q: What about the “Pre-emerge Herbicidal Activity CHEAL (phytotoxicity rating, scale 0-100)” value ([17]; 250 g ai/ha) of the same compound?
A: The value was 30.

Q: What about the “Pre-emerge Herbicidal Activity AMBEL (phytotoxicity rating, scale 0-100)” value ([18]; 63 g ai/ha) of the same compound?
A: The value was 0.

Q: What about the “Pre-emerge Herbicidal Activity AMBEL (phytotoxicity rating, scale 0-100)” value ([18]; 250 g ai/ha) of the same compound?
A: The value was 0.

Q: And the “Pre-emerge Herbicidal Activity DIGSA (phytotoxicity rating, scale 0-100)” value ([19]; 63 g ai/ha)?
A: The value was 0.

Q: What about the “Pre-emerge Herbicidal Activity DIGSA (phytotoxicity rating, scale 0-100)” value ([19]; 250 g ai/ha) of the same compound?
A: Its value is 0.

Q: What about the “Post-emerge Herbicidal Activity CORN (crop damage)” value ([20]; 63 g ai/ha) of the same compound?
A: The value was 0.

Q: What about the “Post-emerge Herbicidal Activity CORN (crop damage)” value ([20]; 250 g ai/ha) of the same compound?
A: The value was 0.

Q: What about the “Post-emerge Herbicidal Activity RICE (crop damage)” value ([21]; 63 g ai/ha) of the same compound?
A: Its value is 0.

Q: What about the “Post-emerge Herbicidal Activity RICE (crop damage)” value ([21]; 250 g ai/ha) of the same compound?
A: Its value is 0.

Q: What about the “Pre-emerge crop damage CORN (phytotoxicity rating, scale 0-100)” value ([22]; 63 g ai/ha) of the same compound?
A: Its value is 0.

Q: What about the “Pre-emerge crop damage CORN (phytotoxicity rating, scale 0-100)” value ([22]; 250 g ai/ha) of the same compound?
A: Its value is 0.

Q: And the “Pre-emerge crop damage RICE (phytotoxicity rating, scale 0-100)” value ([23]; 63 g ai/ha)?
A: Its value is 0.

Q: And the “Pre-emerge crop damage RICE (phytotoxicity rating, scale 0-100)” value ([23]; 250 g ai/ha)?
A: Its value is 0.

Q: What about the “Pre-emerge Herbicidal Activity AMARE (phytotoxicity rating, scale 0-100)” value ([24]; 63 g ai/ha) of the same compound?
A: Its value is 30.

Q: What about the “Pre-emerge Herbicidal Activity AMARE (phytotoxicity rating, scale 0-100)” value ([24]; 250 g ai/ha) of the same compound?
A: The value was 100.
